Results reported in patent US9428512B2, “Compounds” (GlaxoSmithKline LLC, priority 2012, dated 2016).

Columns and labels:
[1] = system: TNF-α induction in human whole blood; test: Induction of TNF-α using fresh human whole blood (WB); type: cell-based; conditions: three donors, overnight incubation, cytokine release as % of 2 μM resiquimod control, read-out: mean pEC50 for TNF-α (converted)
Experimental: (§1) Assay for the Induction of Interferon-α and TNF-α Using Fresh Human Whole Blood (WB)
(§2) Compounds were prepared at 100× required concentration in DMSO in flat-bottom microtitre plates at a volume of 1.5 μL. Columns 1-10 contained a 1 in 4 serial dilution of the test compound. Included on each plate was a serial dilution of the TLR7/8 agonist resiquimod as a standard and Column 11 contained 1.5 μl of 200 μM resiquimod (giving a 2 μM final concentration, used to define the approximate maximal response to resiquimod). Each compound was assayed in duplicate for each donor.
(§3) Blood samples from three human donors were collected into sodium heparin (10 U/ml). 150 μl of whole Blood was dispensed into Col 1 to 11 of assay plates containing 1.5 μl of test compound or standard in DMSO. Plates were placed in an incubator overnight (37° C., 95% air, 5% CO2). Following the overnight incubation, plates were removed from the incubator & mixed on an orbital shaker for approximately 1 minute. 100 μl of 0.9% saline was added to each well and the plates mixed again on an orbital shaker. Plates were then centrifuged (2500 rpm, 10 mins), after which a sample of plasma was removed using a Biomek FX and assayed for both IFN-α and TNF-α using the MSD (Mesoscale Discovery) electrochemiluminescence assay platform. The IFN-α assay was carried out similarly to that described above. The TNF-α assay was carried out as per kit instructions (Cat No K111BHB).
(§4) Cytokine released was expressed as a percentage of the 2 μM resiquimod control (column 11). This percentage was plotted against compound concentration and the pEC50 for the response determined by non-linear least squares curve fitting. For the IFN-α responses, generally a 4 parameter logistic model was selected. For the TNF-α responses where a clear maximum response was obtained (i.e. a well defined plateau in the response was observed) then a 4 parameter model was generally used. If the upper asymptote of the curve wasn't well defined then the curve fitting was generally constrained to a maximal response of 100% (i.e. to the response to 2 μM resiquimod) or to the response of the highest concentration tested if this was greater than the resiquimod response. Some curves were bell shaped for one or both cytokines and the cytokine data on the down slope of the bell shaped response (i.e. concentrations above those giving the maximal response) were generally excluded from the fit, usually with the exception of the concentration immediately above the peak response. Curve fitting thus concentrated on the up slope of the dose response curve.

[2] = system: IFN-α induction in human whole blood; test: Induction of Interferon-α using fresh human whole blood (WB); type: cell-based; conditions: three donors, overnight incubation, cytokine release as % of 2 μM resiquimod control, read-out: mean pEC50 for IFN-α (converted)
Experimental: as §1, §2, §3, §4

SMILES	EC50 [1] [µM]	EC50 [2] [µM]
CCCCc1nc(N)c2[nH]cc(CCCCCN3CCNCC3)c2n1 [Example 1, 2-Butyl-7-(5-(piperazin-1-yl)pentyl)-5H-pyrrolo[3,2-d]pyrimidin-4-amine]	≥ 5.01	≤ 1.58
CCCCc1nc(N)c2[nH]cc(CCCCCN3CCN(C(C)C)CC3)c2n1 [Example 2, 2-Butyl-7-(5-(4-isopropylpiperazin-1-yl)pentyl)-5H-pyrrolo[3,2-d]pyrimidin-4-amine]	≥ 5.01	≤ 1.58
CCCCc1nc(N)c2[nH]cc(CCCN3CCNCC3)c2n1 [Example 5, 2-Butyl-7-(3-(piperazin-1-yl)propyl)-5H-pyrrolo[3,2-d]pyrimidin-4-amine]	≥ 5.01	≤ 1.58
CCCCc1nc(N)c2[nH]cc(CCCN3CCN(CC)CC3)c2n1 [Example 6, 2-Butyl-7-(3-(4-ethylpiperazin-1-yl)propyl)-5H-pyrrolo[3,2-d]pyrimidin-4-amine]	≥ 5.01	≤ 1.58
CCCCc1nc(N)c2[nH]cc(CCCCN3CCN(C(C)C)CC3)c2n1 [Example 7]	≥ 5.01	≤ 1.58

Second part, the compound after the results:

EC50 [1] [µM]	EC50 [2] [µM]	SMILES
≥ 5.01	≤ 1.58	CCCCc1nc(N)c2[nH]c(C)c(CCCCCN3CCN(C(C)C)CC3)c2n1 [Example 3, 2-Butyl-7-(5-(4-isopropylpiperazin-1-yl)pentyl)-6-methyl-5H-pyrrolo[3,2-d]pyrimidin-4-amine]
≥ 5.01	≤ 1.58	CCCCc1nc(N)c2[nH]c(C)c(CCCCCN3CCN(CC)CC3)c2n1 [Example 4, 2-Butyl-7-(5-(4-ethylpiperazin-1-yl)pentyl)-6-methyl-5H-pyrrolo[3,2-d]pyrimidin-4-amine]
